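Protocol summary: plate cells (96-well), add compound at 5 concentrations, incubate 48 h, interpolate endpoints linearly. GI50 is the concentration that inhibits growth by half.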 The source made the active and inactive calls. Cut-off read from the data, not from the text of the source: active = GI50 up to about 1.1 µM and inactive = higher.
What was measured:
Experiment in all cases: inhibition of tumour cell growth, NCI panel, 48 h
SF-539 = system: SF-539
U-251 = system: U-251
MOLT-4 = system: MOLT-4
DU-145 = system: DU-145
T47D = system: T47D
SK-MEL-28 = system: SK-MEL-28
M14 = system: M14
SK-MEL-5 = system: SK-MEL-5
NCI-H522 = system: NCI-H522
RXF 393 = system: RXF 393
UACC-257 = system: UACC-257
UO-31 = system: UO-31
NCI/ADR-RES = system: NCI/ADR-RES
SW-620 = system: SW-620
Malme-3M = system: Malme-3M
HT-29 = system: HT-29
CAKI-1 = system: CAKI-1
IGROV-1 = system: IGROV-1
COLO 205 = system: COLO 205
786-0 = system: 786-0

Compound	GI50 (SF-539)	GI50 (U-251)	GI50 (MOLT-4)	GI50 (DU-145)	GI50 (T47D)	GI50 (SK-MEL-28)	GI50 (M14)	GI50 (SK-MEL-5)	GI50 (NCI-H522)	GI50 (RXF 393)	GI50 (UACC-257)	GI50 (UO-31)	GI50 (NCI/ADR-RES)	GI50 (SW-620)	GI50 (Malme-3M)	GI50 (HT-29)	GI50 (CAKI-1)	GI50 (IGROV-1)	GI50 (COLO 205)	GI50 (786-0)
c1ccc(-c2cccc(-c3ccccn3)n2)nc1 [TERPYRIDINE]	0.51 µM (active)	0.548 µM (active)	0.308 µM (active)	0.324 µM (active)	1.1 µM (active)	0.706 µM (active)	0.164 µM (active)	0.246 µM (active)	0.489 µM (active)	0.424 µM (active)	0.425 µM (active)	0.197 µM (active)	0.321 µM (active)	1.06 µM (active)	0.181 µM (active)	0.5 µM (active)	0.527 µM (active)	0.48 µM (active)	0.254 µM (active)	0.368 µM (active)
CCC1(C)NC(c2cnccn2)=NN1c1ccc(Cl)cc1 (stereo not given)	> 100 µM (inactive)	52.8 µM (inactive)	32.7 µM (inactive)	65.2 µM (inactive)	15.5 µM (inactive)	> 100 µM (inactive)	> 100 µM (inactive)	> 100 µM (inactive)	> 100 µM (inactive)	41.7 µM (inactive)	21.9 µM (inactive)	> 100 µM (inactive)	> 100 µM (inactive)	45.3 µM (inactive)	41.9 µM (inactive)	88.1 µM (inactive)	> 100 µM (inactive)	> 100 µM (inactive)	> 100 µM (inactive)	73.8 µM (inactive)
Cc1nc2n(c1/C=C1/C(=O)Nc3ccccc31)CCS2	41.5 µM (inactive)	42.4 µM (inactive)	30.9 µM (inactive)	53.8 µM (inactive)	25.8 µM (inactive)	78 µM (inactive)	67.5 µM (inactive)	31.5 µM (inactive)	34.5 µM (inactive)	18.7 µM (inactive)	33.3 µM (inactive)	27.5 µM (inactive)	33.8 µM (inactive)	47.4 µM (inactive)	56 µM (inactive)	38.4 µM (inactive)	42.1 µM (inactive)	91 µM (inactive)	20.2 µM (inactive)	64.1 µM (inactive)
O=c1c(Br)c(-c2ccccc2)[s+]([O-])c2ccccc12 (stereo not given)	3.01 µM (inactive)	8.07 µM (inactive)	1.22 µM (inactive)	14.2 µM (inactive)	2.8 µM (inactive)	13 µM (inactive)	12.9 µM (inactive)	11.5 µM (inactive)	1.68 µM (inactive)	12.2 µM (inactive)	12.9 µM (inactive)	12 µM (inactive)	16.7 µM (inactive)	16.7 µM (inactive)	10.4 µM (inactive)	13.2 µM (inactive)	9.12 µM (inactive)	10.1 µM (inactive)	1.89 µM (inactive)	2.7 µM (inactive)
Oc1ccc(Cc2cc(Cl)cc(Cl)c2O)cc1Cl	17.1 µM (inactive)	19.2 µM (inactive)	20 µM (inactive)	10.1 µM (inactive)	18.4 µM (inactive)	17.3 µM (inactive)	15.7 µM (inactive)	17.5 µM (inactive)	16.7 µM (inactive)	13.4 µM (inactive)	15.9 µM (inactive)	15.7 µM (inactive)	18.3 µM (inactive)	16.6 µM (inactive)	16.8 µM (inactive)	20.1 µM (inactive)	22.6 µM (inactive)	17.9 µM (inactive)	19 µM (inactive)	20.3 µM (inactive)

Reference: ChEMBL document CHEMBL1201862, “PubChem BioAssay data set” (2004)
